Ki data for 24 compounds are collected here from patent US5459152A, “Platelet activating factor antagonists” (Abbott Laboratories, priority 1993, dated 1995).

Molecules are shown by their SMILES.

The target in the assay is T1, PAF receptor (Oryctolagus cuniculus, UniProt G1TEI7).
T1 construct: platelet membranes where prepared by centrifugation and washing; tissue Pel-Freez (Rogers, AR) (whole rabbit blood); host or cells: rabbit platelet membranes
T1 sequence (G1TEI7 1-342): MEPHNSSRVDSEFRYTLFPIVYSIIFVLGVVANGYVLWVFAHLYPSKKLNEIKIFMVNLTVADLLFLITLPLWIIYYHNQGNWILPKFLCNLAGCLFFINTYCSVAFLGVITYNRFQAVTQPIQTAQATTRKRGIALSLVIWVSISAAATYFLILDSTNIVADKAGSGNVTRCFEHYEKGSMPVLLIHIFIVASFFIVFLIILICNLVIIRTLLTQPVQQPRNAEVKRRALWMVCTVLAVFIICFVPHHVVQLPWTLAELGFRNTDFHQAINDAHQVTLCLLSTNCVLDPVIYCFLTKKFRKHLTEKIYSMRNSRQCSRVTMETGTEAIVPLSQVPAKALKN
As to the kind of experiment: PAF receptor binding assay ([3H]C18-PAF, rabbit platelet membranes). As to conditions: read-out: PAF Receptor Binding Activity K1. The procedure:
The ability of representative compounds of the present invention to inhibit PAF activity was determined in an in vitro test using the following method.
Citrated whole rabbit blood was obtained from Pel-Freez (Rogers, AR). Rabbit platelets where prepared by centrifugation and washing. The platelets where lysed by freeze-thawing and sonication; platelet membranes where prepared by centrifugation and washing. Final membrane preparations where stored frozen in 10 mM Tris/5 mM MgCl2 /2 mM EDTA (TME buffer, pH 7.0) with 0.25 M sucrose added for membrane stabilization.
The final volume of the assay was 100 μl. The assay was conducted in Millititre-GV™ (Millipore Corp.) filtration plates; incubation time was for 60 minutes at room temperature (22°-23° C.). "Specific binding" was operationally defined as the arithmetic difference between "total binding" of 0.6 nM [^3 H]C18 -PAF (in the absence of added PAF) and "nonspecific binding" (in the presence of 1 μM PAF). After the prescribed incubation, platelet membranes where filtered under vacuum and washed with 1 millilitre of "binding buffer". The filters was dried and removed. The bound radioactivity was quantitated with a Berthold TLC-Linear Analyzer model LB2842.
Experiments where repeated at least once.
Take `CN(C)C(=O)n1cc(C(=O)c2ccn3c2CSC3c2cccnc2)c2ccc(-c3ccccc3)cc21` (stereo not drawn) [Example 12, 3-(Pyridin-3-yl)-7-(1-N,N-dimethylcarbamoyl-6-phenylindol-3-yl)carbonyl-1H,3H-pyrrolo[1,2-c]thiazole]: the Ki was determined as 23 nM. To `CN(C)S(=O)(=O)n1cc(C(=O)c2ccn3c2CSC3c2ccc[n+]([O-])c2)c2ccc(-c3ccc(F)cc3)cc21` (stereo not drawn) [Example 60, 3-(1-Oxide-pyridin-3-yl)-7-[1-N,N-dimethylsulfamyl-6-(4-fluorophenyl)indol-3-ylcarbonyl]-1H,3H-pyrrolo[1,2-c]thiazole] belongs 210 nM; to `CN(C)C(=O)n1cc(C(=O)c2ccn3c2CSC3c2cccnc2)c2ccc(-c3cccs3)cc21` (stereo not drawn) [Example 101, 3-(Pyridin-3-yl)-7-(1-N,N-dimethylcarbamoyl-6-thiophen-2-ylindol-3-ylcarbonyl)-1H,3H-pyrrolo[1,2-c]thiazole], 0.95 nM. To `O=C(c1ccn2c1CSC2c1cccnc1)c1c[nH]c2ccc(OCc3ccccc3)cc12` (stereo not drawn) [Example 3, 3-(Pyridin-3-yl)-7-(5-phenylmethoxyindol-3-yl)carbonyl-1H,3H-pyrrolo[1,2-c]thiazole] belongs 180 nM; to `O=C(c1ccn2c1CSC2c1cccnc1)c1cn(S(=O)(=O)c2ccccc2)c2cc(-c3ccc(F)cc3)ccc12` (stereo not drawn) [Example 61, 3-(Pyridin-3-yl)-7-[1-phenylsulfonyl-6-(4-fluorophenyl)indol-3-ylcarbonyl]-1H,3H-pyrrolo[1,2-c]thiazole], 1100 nM; to `O=C(c1ccn2c1CSC2c1cccnc1)c1cn(C(=O)Oc2ccccc2)c2cc(OCc3ccccc3)ccc12` (stereo not drawn) [Example 27, 3-[Pyridin-3-yl)-7-(1-carbophenoxy-6-phenylmethoxyindol-3-ylcarbonyl)-1H,3H-pyrrolo[1,2-c]thiazole], 200 nM.

As to `Cn1cc(C(=O)c2ccn3c2CSC3c2cccnc2)c2ccc(OCc3ccccc3)cc21` (stereo not drawn) [Example 21, 3-(Pyridin-3-yl)-7-(1-methyl-6-phenylmethoxyindol-3-ylcarbonyl)-1H,3H-pyrrolo[1,2-c]thiazole], the Ki is 15 nM. As to `COc1ccc(-c2ccc3c(C(=O)c4ccn5c4CSC5c4ccc[n+]([O-])c4)cn(C(=O)N(C)C)c3c2)cc1` (stereo not drawn) [Example 45, 3-(1-Oxide-pyridin-3-yl)-7-[1-N,N-dimethylcarbamoyl-6-(4-methoxyphenyl)indol-3-ylcarbonyl]-1H,3H-pyrrolo[1,2-c]thiazole], the Ki turned out to be 4.1 nM. The figure for `CC(C)N(C(=O)n1cc(C(=O)c2ccn3c2CSC3c2cccnc2)c2ccc(OCc3ccccc3)cc21)C(C)C` (stereo not drawn) [Example 16, 3-(Pyridin-3-yl)-7-(1-N,N-diisopropylcarbamoyl-6-phenylmethoxyindol-3-ylcarbonyl)-1H,3H-pyrrolo[1,2-c]thiazole] is 85 nM. Take `O=C(c1ccn2c1CSC2c1cccnc1)c1c[nH]c2cc(-c3ccccc3)ccc12` (stereo not drawn) [Example 10, 3-(Pyridin-3-yl)-7-(6-phenylindol-3-yl)carbonyl-1H,3H-pyrrolo[1,2-c]thiazole]: the Ki stood at 95 nM. The figure for `CN(C)C(=O)n1cc(C(=O)c2ccn3c2CSC3c2cccnc2)c2ccc(Cl)cc21` (stereo not drawn) [Example 65, 3-(Pyridin-3-yl)-7-(1-N,N-dimethylcarbamoyl-6-chloroindol-3-ylcarbonyl)-1H,3H-pyrrolo[1,2-c]thiazole] is 89 nM; for `CN(C)C(=O)n1cc(C(=O)c2ccn3c2CSC3c2ccc[n+]([O-])c2)c2ccc(Cl)cc21` (stereo not drawn) [Example 66, 3-(1-Oxide-Pyridin-3-yl)-7-(1-N,N-dimethylcarbamoyl-6-chloroindol-3-ylcarbonyl)-1H,3H-pyrrolo[1,2-c]thiazole] it is 38 nM; for `CN(C)C(=O)n1cc(C(=NN)c2ccn3c2CSC3c2cccnc2)c2ccc(-c3ccc(F)cc3)cc21` (stereo not drawn) [Example 104] it is 2.2 nM. Take `O=C(c1ccn2c1CSC2c1cccnc1)c1c[nH]c2cc(-c3ccc(F)cc3)ccc12` (stereo not drawn) [Example 28, 3-(Pyridin-3-yl)-7-[6-(4-fluorophenyl)indol-3-ylcarbonyl]-1H,3H-pyrrolo[1,2-c]thiazole]: the Ki was found to be 75 nM. To `CNC(=O)n1cc(C(=O)c2ccn3c2CSC3c2ccc[n+]([O-])c2)c2ccc(-c3ccccc3)cc21` (stereo not drawn) [Example 35, 3-(1-Oxide-pyridin-3-yl)-7-(1-N-methylcarbamoyl-6-phenylindol-3-ylcarbonyl)-1H,3H-pyrrolo[1,2-c]thiazole] belongs 44 nM.

`COC(=O)CCn1cc(C(=O)c2ccn3c2CSC3c2cccnc2)c2ccc(-c3ccc(F)cc3)cc21` (stereo not drawn) [Example 46, 3-(Pyridin-3-yl)-7-[1-(2-carbomethoxyethyl)-6-(4-fluorophenyl)indol-3-ylcarbonyl]-1H,3H-pyrrolo[1,2-c]thiazole]: the Ki came out at 10 nM. For `CC(C)(C)OC(=O)n1cc(C(=O)c2ccn3c2CSC3c2cccnc2)c2ccccc21` (stereo not drawn) [Example 9, 3-(Pyridin-3-yl)-7-(1-tert-butyloxycarbonylindol-3-yl)carbonyl-1H,3H-pyrrolo[1,2-c]thiazole], the Ki turned out to be 110 nM.

As for `O=C(c1ccn2c1CSC2c1cccnc1)c1cn(C(=O)N2CCOCC2)c2ccccc12` (stereo not drawn) [Example 11, 3-(Pyridin-3-yl)-7-[1-(morpholin-4-ylcarbonyl)indol-3-yl]carbonyl-1H,3H-pyrrolo[1,2-c]thiazole], the Ki is 225 nM. In the case of `NC(=O)Cn1cc(C(=O)c2ccn3c2CSC3c2cccnc2)c2ccc(-c3ccc(F)cc3)cc21` (stereo not drawn) [Example 95, 3-(Pyridin-3-yl)-7-[1-carbamoylmethyl-6-(4-fluorophenyl)indol-3-ylcarbonyl]-1H,3H-pyrrolo[1,2-c]thiazole], the Ki worked out at 10 nM.

With `CC1(C)SC(c2cccnc2)n2ccc(C(=O)c3c[nH]c4cc(-c5ccc(F)cc5)ccc34)c21` (stereo not drawn) [Example 36, 1,1-Dimethyl-3-(pyridin-3-yl)-7-[6-(4-fluorophenyl)indol-3-ylcarbonyl]-1H,3H-pyrrolo[1,2-c]thiazole], the Ki is 1100 nM. In the case of `CN(C)CCN(C)C(=O)n1cc(C(=O)c2ccn3c2CSC3c2cccnc2)c2ccc(-c3ccc(F)cc3)cc21` (stereo not drawn) [Example 84, 3-(Pyridin-3-yl)-7-[1-(N-methyl-N-(dimethylaminoethyl))carbamoyl-6-(4-fluorophenyl)indol-3-ylcarbonyl]-1H,3H-pyrrolo[1,2-c]thiazole], the Ki amounted to 6.9 nM. To `CN(C)C(=O)n1cc(C(=O)c2ccn3c2C(C)(C)SC3c2cccnc2)c2ccccc21` (stereo not drawn) [Example 19, 1,1-Dimethyl-3-(pyridin-3-yl)-7-(1-N,N-dimethylcarbamoyl-indol-3-ylcarbonyl)-1H,3H-pyrrolo[1,2-c]thiazole] belongs 100 nM. Turning to `O=C(c1ccn2c1C[S+]([O-])C2c1cccnc1)c1c[nH]c2ccccc12` (stereo not drawn) [Example 14, 2-Oxide-3-(pyridin-3-yl)-7-(indol-3-ylcarbonyl)-1H,3H-pyrrolo[1,2-c]thiazole], the Ki was found to be 2400 nM. As for `CN(C)C(=O)n1cc(C(=O)c2ccn3c2CSC3c2cccnc2)c2ccc(-c3ccc(C(=O)NN)cc3)cc21` (stereo not drawn) [Example 91, 3-(1-Oxide-pyridin-3-yl)-7-[1-N,N-dimethylcarbamoyl-6-(4-hydrazinylcarbonylphenyl)indol-3-ylcarbonyl]-1H,3H-pyrrolo[1,2-c]thiazole], the Ki came to 20 nM.
